Read-outs that look alike come from different tables or passages of the source.
Experiments:
human SR = target: T1, human SR (Homo sapiens, UniProt Q9GZT4); conditions: cited from earlier work
T1 sequence (Q9GZT4 1-340): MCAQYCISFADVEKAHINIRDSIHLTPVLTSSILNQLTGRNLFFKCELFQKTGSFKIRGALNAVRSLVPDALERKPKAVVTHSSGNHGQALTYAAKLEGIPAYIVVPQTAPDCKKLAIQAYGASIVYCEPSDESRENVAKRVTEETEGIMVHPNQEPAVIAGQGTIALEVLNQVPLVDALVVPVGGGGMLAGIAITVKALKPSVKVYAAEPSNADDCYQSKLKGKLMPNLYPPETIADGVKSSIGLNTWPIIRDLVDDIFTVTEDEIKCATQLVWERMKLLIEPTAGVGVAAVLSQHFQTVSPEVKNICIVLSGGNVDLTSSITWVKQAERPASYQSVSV

D-serine [1] = experiment: Pharmacokinetics profile of D-serine in rat model, blood plasma; conditions: for ln(C) / Conc / AUC: D-serine in rat plasma; for Conc: doses per Table 1
Protocol: (§1) To assess and compare the pharmacokinetics profile of D-serine in rat model.
(§2) Six groups were divided into 4 sets of 3 rats each/subset for bleeding and organ (brain) collection—Total 72 rats
Plasma was separated using refrigerated centrifuge & stored in −80° C. before analysis. Blood was collected at time point 0, 2, 6 and 10 hrs at least from 3 rats/group/time point.
(§3) Supernatant was filtered with 0.2 micron amicon syringe filter (Millipore, Hessen, Germany), then directly transferred into auto sampler vials
(§4) An Accela™ ultra-high performance liquid chromatography (UHPLC) system (Thermo Fisher, Waltham, USA), coupled online via heated electrospray ionization source (HESI) with a Q-Exactive-Orbitrap mass spectrometer (Thermo Fisher), was employed for global metabolomics profiling with 1 μL sample injection volume. The metabolites were profiled using a C18 Hypersil Gold column (1.9 μm, 2.1×150 mm, Thermo).
(§5) The temperature of column oven was set at 35° C. and the sample manager was maintained at 4° C. The eluents acetonitrile and water containing 0.1% formic acid were employed in the electrospray ionization-positive (ESI+) mode.
(§6) The area under the plasma concentration time curve (AUC) value was calculated to the last quantifiable sample (AUClast) by using the log-linear trapezoidal rule.

D-serine [2] = experiment: Pharmacokinetics profile of D-serine in rat model, brain tissue sample; conditions: for ln(C) / Conc / AUC: D-serine in rat brain tissue; for Conc: doses per Table 1
Protocol: as §1, §2
Organ (Brain) collection: Rats were sacrificed each time point (3 rats/group/time point) by decapitation at 0, 2, 6 or 10 hr post dose. Brain was removed and cerebellum dissected on ice. Tissue samples were frozen on dry ice and stored at −80° C. until analysis.
as §3, §4, §5, §6

[3] = D-serine, rat plasma, non-compartmental analysis
[4] = D-serine, rat brain tissue, non-compartmental analysis

In the case of `[Mg+2]` [Mg^2+], the “activity of the enzyme relative to purified human SR without divalent cation supplementation” value (human SR; @10 μM) is given as 112%.

With `N[C@@H](COS(=O)(=O)O)C(=O)O` [L-Serine 0-sulfate, L-Serine O-sulfate, reference compound] the D-Serine over control (D-serine [1]; rat, treated with serine racemase inhibitor, 1.86 mg/kg) was “substantially reduced”.

For “magnesium 2-acetamidoethanesulfonate dihydrate [Test I]”, the “ln(C)” value (D-serine [1]; Time 0 (pre-dose)) was −0.3877, the Conc (D-serine [1]; Time 0 (pre-dose)) was 0.6786 and the “ln(C)” value (D-serine [1]; Time 2 hr) was −0.4986. The Conc (D-serine [1]; Time 2 hr) was 0.6074, the “ln(C)” value (D-serine [1]; Time 6 hr) was −0.6686 and the Conc (D-serine [1]; Time 6 hr) was 0.5124. The “ln(C)” value (D-serine [1]; Time 10 hr) was −0.85, the Conc (D-serine [1]; Time 10 hr) was 0.4274 and the AUC (D-serine [1]; cumulative to Time 2 hr) was 1.286. For the same compound, the AUC (D-serine [1]; cumulative to Time 6 hr) was 3.5256, the “AUC 0-inf_obs” value (D-serine [1]; [3]) was 11130 ng·h/mL and the “AUMC 0-inf_obs” value (D-serine [1]; [3]) was 343.2 μg/ml*h^2. The Cl/F_obs (D-serine [1]; [3]) was 2.39 (mg)/(μg/ml)/h, the Cmax (D-serine [1]; [3]) was 678.6 ng/mL and the “MRT 0-inf_obs” value (D-serine [1]; [3]) was 22.68 h. For the same compound, the Tlag (D-serine [1]; [3]) was 0 h, the Tmax (D-serine [1]; [3]) was 0 h and the Vz/F_obs (D-serine [1]; [3]) was 54.4 (mg)/(μg/ml). For the same compound, the t1/2 (D-serine [1]; [3]) was 15.78 h, the “AUC 0-t” value (D-serine [1]; D-serine, rat plasma, non-compartmental analysis, 0-10 hr) was 3405.2 ng·h/mL and the Lambda_z (D-serine [1]; D-serine, rat plasma, non-compartmental analysis, extravascular input) was 0.04393 L/h. The “AUC values of D-serine” value (D-serine [1]; rat plasma, G4 36.17 mg/kg, G5 31.01 mg/kg) was “increased”, the “ln(C)” value (D-serine [2]; Time 0 (pre-dose)) was −0.8701 and the Conc (D-serine [2]; Time 0 (pre-dose)) was 0.4189. For the same compound, the “ln(C)” value (D-serine [2]; Time 2 hr) was −0.981, the Conc (D-serine [2]; Time 2 hr) was 0.3749 and the “ln(C)” value (D-serine [2]; Time 6 hr) was −1.151. The Conc (D-serine [2]; Time 6 hr) was 0.3163, the “ln(C)” value (D-serine [2]; Time 10 hr) was −1.332 and the Conc (D-serine [2]; Time 10 hr) was 0.2638. For the same compound, the AUC (D-serine [2]; cumulative to Time 2 hr) was 0.7938, the AUC (D-serine [2]; cumulative to Time 6 hr) was 2.176 and the “AUC 0-inf_obs” value (D-serine [2]; [4]) was 7342 ng·h/mL. The “AUMC 0-inf_obs” value (D-serine [2]; [4]) was 211.9 μg/ml*h^2, the Cl/F_obs (D-serine [2]; [4]) was 3.872 (mg)/(μg/ml)/h and the Cmax (D-serine [2]; [4]) was 418.9 ng/mL. The “MRT 0-inf_obs” value (D-serine [2]; [4]) was 22.68 h, the Tlag (D-serine [2]; [4]) was 0 h and the Tmax (D-serine [2]; [4]) was 0 h. For the same compound, the Vz/F_obs (D-serine [2]; [4]) was 88.12 (mg)/(μg/ml), the t1/2 (D-serine [2]; [4]) was 15.78 h and the “AUC 0-t” value (D-serine [2]; D-serine, rat brain tissue, non-compartmental analysis, 0-10 hr) was 2137 ng·h/mL. For the same compound, the Lambda_z (D-serine [2]; D-serine, rat brain tissue, non-compartmental analysis, extravascular input) was 0.04393 L/h and the “AUC values of D-serine” value (D-serine [2]; rat brain tissue samples, G4 36.17 mg/kg, G5 31.01 mg/kg) was “increased”.

In the case of `[Mn+2]` [Mn^2+], the “activity of the enzyme relative to purified human SR without divalent cation supplementation” value (human SR; @10 μM) is given as 153%.

For `[Ca+2]` [Ca′], the “activity of the enzyme relative to purified human SR without divalent cation supplementation” value (human SR; @1 mM) is listed as 134%.

Reference: patent US11376277B2, “Synergistic medicinal compositions for treating dysfunctional D-serine signaling” (CELAGENEX RESEARCH (INDIA) PVT. LTD., priority 2020, dated 2022)
